System: rice blast fungi
Assay type: in vivo, Pyricularia grisea

Row | SMILES | Inhibiting Ratio (%) (at 250 ppm)
1 | COc1ccc(N=c2scc(CC(=O)Nc3ccc(Cl)cc3)n2C)cc1.Cl [Compound 118, 2-(4-methoxyphenylimino)-3-methyl-4-[N-(4-chlorophenyl)carbamoylmethyl]-1,3-thiazol-4-ine hydrochloride] | 99
2 | CCCCc1ccc(N=c2scc(CC(=O)Nc3ccc(Cl)cc3)n2C)cc1.Cl [Compound 124, 2-[4-(n-butyl)phenylimino]-3-methyl-4-[N-(4-chlorophenyl)carbamoylmethyl]-1,3-thiazol-4-ine hydrochloride] | 93
3 | Cl.Cn1c(CC(=O)Nc2ccc(Cl)cc2)csc1=Nc1cccc(F)c1 [Compound 129, 2-(3-fluorophenylimino)-3-methyl-4-[N-(4-chlorophenyl)carbamoylmethyl]-1,3-thiazol-4-ine hydrochloride] | 96
4 | Cl.Cn1c(CC(=O)Nc2ccc(Cl)cc2)csc1=Nc1ccc(Br)cc1 [Compound 130, 2-(4-bromophenylimino)-3-methyl-4-[N-(4-chlorophenyl)carbamoylmethyl]-1,3-thiazol-4-ine hydrochloride] | 98
5 | Cl.Cn1c(CC(=O)Nc2ccc(Cl)cc2)csc1=Nc1ccccc1-c1ccccc1 [Compound 131, 2-(2-phenylphenylimino)-3-methyl-4-[N-(4-chlorophenyl)carbamoylmethyl]-1,3-thiazol-4-ine hydrochloride] | 96
6 | Cl.Cn1c(CC(=O)Nc2ccc(Br)cc2)csc1=Nc1ccc(C(F)(F)F)cc1 [Compound 132, 2-(4-trifluoromethylphenylimino)-3-methyl-4-[N-(4-bromophenyl)carbamoylmethyl]-1,3-thiazol-4-ine hydrochloride] | 99
7 | Cl.Cn1c(CC(=O)Nc2ccc(Br)cc2)csc1=Nc1ccc(F)cc1F [Compound 133, 2-(2,4-difluorophenylimino)-3-methyl-4-[N-(4-bromophenyl)carbamoylmethyl]-1,3-thiazol-4-ine hydrochloride] | 99
8 | Cl.Cn1c(CC(=O)Nc2ccc(Br)cc2)csc1=Nc1cccc(Cl)c1F [Compound 134, 2-(3-chloro-2-fluorophenylimino)-3-methyl-4-[N-(4-bromophenyl)carbamoylmethyl]-1,3-thiazol-4-ine hydrochloride] | 98
9 | Cc1ccc(N=c2scc(CC(=O)Nc3ccc(Br)cc3)n2C)c(C)c1.Cl [Compound 135, 2-(2,4-dimethylphenylimino)-3-methyl-4-[N-(4-bromophenyl)carbamoylmethyl]-1,3-thiazol-4-ine hydrochloride] | 98
10 | Cl.Cn1c(CC(=O)Nc2ccc(Br)cc2)csc1=Nc1ccc(F)cc1 [Compound 136, 2-(4-fluorophenylimino)-3-methyl-4-[N-(4-bromophenyl)carbamoylmethyl]-1,3-thiazol-4-ine hydrochloride] | 97
11 | Cl.Cn1c(CC(=O)Nc2ccc(Br)cc2)csc1=Nc1cccc(Br)c1 [Compound 137, 2-(3-bromophenylimino)-3-methyl-4-[N-(4-bromophenyl)carbamoylmethyl]-1,3-thiazol-4-ine hydrochloride] | 97
12 | Cl.Cn1c(CC(=O)Nc2ccc(Br)cc2)csc1=Nc1cc(Cl)cc(Cl)c1 [Compound 138, 2-(3,5-dichlorophenylimino)-3-methyl-4-[N-(4-bromophenyl)carbamoylmethyl]-1,3-thiazol-4-ine hydrochloride] | 95
13 | Cl.Cn1c(CC(=O)Nc2ccc(Br)cc2)csc1=Nc1ccc(OC(F)(F)F)cc1 [Compound 139, 2-(4-trifluoromethoxyphenylimino)-3-methyl-4-[N-(4-bromophenyl)carbamoylmethyl]-1,3-thiazol-4-ine hydrochloride] | 99
14 | Cl.Cn1c(CC(=O)Nc2ccc(Br)cc2)csc1=Nc1ccc(F)cc1Cl [Compound 140, 2-(2-chloro-4-fluorophenylimino)-3-methyl-4-[N-(4-bromophenyl)carbamoylmethyl]-1,3-thiazol-4-ine hydrochloride] | 99
15 | Cl.Cn1c(CC(=O)Nc2ccc(Br)cc2)csc1=Nc1ccc(Oc2ccccc2)cc1 [Compound 141, 2-(4-phenoxyphenylimino)-3-methyl-4-[N-(4-bromophenyl)carbamoylmethyl]-1,3-thiazol-4-ine hydrochloride] | 99
16 | Cc1cc(Br)ccc1N=c1scc(CC(=O)Nc2ccc(Br)cc2)n1C.Cl [Compound 142, 2-(4-bromo-2-methylphenylimino)-3-methyl-4-[N-(4-bromophenyl)carbamoylmethyl]-1,3-thiazol-4-ine hydrochloride] | 98
17 | Cl.Cn1c(CC(=O)Nc2ccc(Br)cc2)csc1=Nc1ccc(Br)cc1 [Compound 143, 2-(4-bromophenylimino)-3-methyl-4-[N-(4-bromophenyl)carbamoylmethyl]-1,3-thiazol-4-ine hydrochloride] | 95

Row | SMILES | Inhibiting Ratio (%) (at 250 ppm)
18 | Cl.Cn1c(CC(=O)Nc2ccc(Br)cc2)csc1=Nc1ccc([N+](=O)[O-])cc1 [Compound 144, 2-(4-nitrophenylimino)-3-methyl-4-[N-(4-bromophenyl)carbamoylmethyl]-1,3-thiazol-4-ine hydrochloride] | 97
19 | CCCCc1ccc(N=c2scc(CC(=O)Nc3ccc(Br)cc3)n2C)cc1.Cl [Compound 147, 2-[4-(n-butyl)phenylimino]-3-methyl-4-[N-(4-bromophenyl)carbamoylmethyl]-1,3-thiazol-4-ine hydrochloride] | 96
20 | Cl.Cn1c(CC(=O)Nc2ccc(Br)cc2)csc1=Nc1ccccc1F [Compound 148, 2-(2-fluorophenylimino)-3-methyl-4-[N-(4-bromophenyl)carbamoylmethyl]-1,3-thiazol-4-ine hydrochloride] | 95
21 | Cl.Cn1c(CC(=O)Nc2ccccc2F)csc1=Nc1ccc(F)c(Cl)c1 [Compound 149, 2-(3-chloro-4-fluorophenylimino)-3-methyl-4-[N-(2-fluorophenyl)carbamoylmethyl]-1,3-thiazol-4-ine hydrochloride] | 95
22 | Cl.Cn1c(CC(=O)Nc2ccccc2F)csc1=Nc1ccc(Cl)cc1F [Compound 150, 2-(4-chloro-2-fluorophenylimino)-3-methyl-4-[N-(2-fluorophenyl)carbamoylmethyl]-1,3-thiazol-4-ine hydrochloride] | 96
23 | CC(C)Oc1cc(N=c2scc(CC(=O)Nc3ccccc3F)n2C)c(F)cc1Cl.Cl [Compound 151, 2-(4-chloro-2-fluoro-5-isopropoxyphenylimino)-3-methyl-4-[N-(2-fluorophenyl)carbamoylmethyl]-1,3-thiazol-4-ine hydrochloride] | 96
24 | Cl.Cn1c(CC(=O)Nc2ccccc2F)csc1=Nc1cccc(Br)c1 [Compound 153, 2-(3-bromophenylimino)-3-methyl-4-[N-(2-fluorophenyl)carbamoylmethyl]-1,3-thiazol-4-ine hydrochloride] | 99
25 | Cc1ccc(N=c2scc(CC(=O)Nc3ccc(Cl)cc3)n2C)c(C)c1.Cl [Compound 154, 2-(2,4-dimethylphenylimino)-3-methyl-4-(N-(4-chlorophenyl)carbamoylmethyl)-1,3-thiazol-4-ine hydrochloride] | 93
26 | Cl.Cn1c(CC(=O)Nc2ccc(Cl)cc2)csc1=Nc1ccc(F)c(Cl)c1 [Compound 155, 2-(3-chloro-4-fluorophenylimino)-3-methyl-4-[N-(4-chlorophenyl)carbamoylmethyl]-1,3-thiazol-4-ine hydrochloride] | 96
27 | Cl.Cn1c(CC(=O)Nc2ccc(Cl)cc2)csc1=Nc1cccc(Br)c1 [Compound 156, 2-(3-bromophenylimino)-3-methyl-4-[N-(4-chlorophenyl)carbamoylmethyl]-1,3-thiazol-4-ine hydrochloride] | 96
28 | Cl.Cn1c(CC(=O)Nc2ccc(Cl)cc2)csc1=Nc1ccc(Cl)cc1F [Compound 158, 2-(4-chloro-2-fluorophenylimino)-3-methyl-4-[N-(4-chlorophenyl)carbamoylmethyl]-1,3-thiazol-4-ine hydrochloride] | 90
29 | Cl.Cn1c(CC(=O)Nc2ccc(Cl)cc2)csc1=Nc1ccc(F)cc1F [Compound 159, 2-(2,4-difluorophenylimino)-3-methyl-4-[N-(4-chlorophenyl)carbamoylmethyl]-1,3thiazol-4-ine hydrochloride] | 92
30 | Cl.Cn1c(CC(=O)Nc2ccc(Cl)cc2)csc1=Nc1ccccc1F [Compound 160, 2-(2-fluorophenylimino)-3-methyl-4-[N-(4-chlorophenyl)carbamoylmethyl]-1,3-thiazol-4-ine hydrochloride] | 88
31 | CC(C)Oc1cc(N=c2scc(CC(=O)Nc3ccc(Cl)cc3)n2C)c(F)cc1Cl.Cl [Compound 161, 2-(4-chloro-5-isopropoxy-2-fluorophenylimino)-3-methyl-4-[N-(4-chlorophenyl)carbamoylmethyl]-1,3-thiazol-4-ine hydrochloride] | 86
32 | Cc1ccc(NC(=O)Cc2csc(=Nc3ccc(Br)cc3)n2C)cc1.Cl [Compound 162, 2-(4-bromophenylimino)-3-methyl-4-[N-(4-methylphenyl)carbamoylmethyl]-1,3-thiazol-4-ine hydrochloride] | 89
33 | Cc1ccc(NC(=O)Cc2csc(=Nc3ccccc3F)n2C)cc1.Cl [Compound 167, 2-(2-fluorophenylimino)-3-methyl-4-[N-(4-methylphenyl)carbamoylmethyl]-1,3-thiazol-4-ine hydrochloride] | 88
34 | Cc1ccc(NC(=O)Cc2csc(=Nc3cc(OC(C)C)c(Cl)cc3F)n2C)cc1.Cl [Compound 168, 2-(4-chloro-5-isopropoxy-2-fluorophenylimino)-3-methyl-4-[N-(4-methylphenyl)carbamoylmethyl-]-1,3-thiazol-4-ine hydrochloride] | 92

From patent publication US6921770B2 (priority 2000, dated 2005)
